What is called inhibition is the share of the control response that was lost under treatment. Read a high inhibition as a response far below the control.

EGFR, sequence (P00533 whole entry, looked up): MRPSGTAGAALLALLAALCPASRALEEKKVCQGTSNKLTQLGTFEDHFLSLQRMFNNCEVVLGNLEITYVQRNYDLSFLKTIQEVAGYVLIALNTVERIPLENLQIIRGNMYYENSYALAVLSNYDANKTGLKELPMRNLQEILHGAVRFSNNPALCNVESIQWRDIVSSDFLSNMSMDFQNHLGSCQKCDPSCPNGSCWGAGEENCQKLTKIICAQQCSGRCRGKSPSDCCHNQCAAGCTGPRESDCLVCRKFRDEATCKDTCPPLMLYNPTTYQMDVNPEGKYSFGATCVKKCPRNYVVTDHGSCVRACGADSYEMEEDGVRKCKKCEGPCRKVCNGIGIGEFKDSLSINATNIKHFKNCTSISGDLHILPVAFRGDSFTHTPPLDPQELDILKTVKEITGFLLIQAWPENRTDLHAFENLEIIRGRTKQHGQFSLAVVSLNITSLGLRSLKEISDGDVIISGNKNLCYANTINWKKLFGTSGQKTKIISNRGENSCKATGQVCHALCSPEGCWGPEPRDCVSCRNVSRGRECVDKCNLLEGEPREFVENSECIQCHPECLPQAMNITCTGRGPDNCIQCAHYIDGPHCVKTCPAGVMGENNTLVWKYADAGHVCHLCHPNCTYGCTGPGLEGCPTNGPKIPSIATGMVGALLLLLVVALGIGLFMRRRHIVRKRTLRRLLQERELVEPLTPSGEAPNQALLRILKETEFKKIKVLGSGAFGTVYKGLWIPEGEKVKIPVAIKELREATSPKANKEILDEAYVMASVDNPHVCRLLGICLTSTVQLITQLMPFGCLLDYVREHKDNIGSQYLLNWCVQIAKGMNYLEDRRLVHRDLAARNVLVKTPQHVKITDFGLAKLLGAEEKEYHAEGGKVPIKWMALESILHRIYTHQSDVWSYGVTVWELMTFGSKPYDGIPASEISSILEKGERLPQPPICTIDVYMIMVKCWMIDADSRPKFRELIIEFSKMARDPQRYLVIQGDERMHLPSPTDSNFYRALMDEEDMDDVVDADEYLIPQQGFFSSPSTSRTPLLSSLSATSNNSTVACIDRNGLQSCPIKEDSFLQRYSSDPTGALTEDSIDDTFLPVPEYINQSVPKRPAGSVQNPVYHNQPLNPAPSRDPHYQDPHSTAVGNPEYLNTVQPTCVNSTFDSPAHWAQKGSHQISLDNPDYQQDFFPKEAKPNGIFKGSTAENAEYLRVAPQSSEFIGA

The test concerns the target EGFR (UniProt P00533). As to conditions: concentration not given here.
The compound `C=CC(=O)Nc1ccc(OC)c(C(=O)Nc2cccc(C(O)c3ccccc3)c2)c1` (centres undefined) registered an inhibition of 5.84%. The compound `CCC(=O)Nc1ccc(O)c(C(=O)Nc2cccc(C(=O)N(CC)CC)c2)c1` showed an inhibition of 46.6%. Take `CCC(=O)Nc1ccc(O)c(C(=O)Nc2ccc(Oc3ccccc3)cc2)c1`: the inhibition is 48.5%. `C=CC(=O)Nc1ccc(OC)c(C(=O)Nc2cccc(Oc3ccccc3)c2)c1` gave an inhibition of 1.59%.

Values taken from the Kinase Knowledgebase extract (Sharma et al. 2016).
